The text below walks through data of paper PMC11858624, “Antioxidant and Tyrosinase-Inhibitory Activities and Biological Bioactivities of Flavonoid Derivatives from Quercus mongolica Pollen” (Molecules, 2025).

Usually inhibition stands for the change of the read-out against control, counted positive when it falls. Low readings indicate a weak effect, high ones a strong effect. For orientation: IC50 means the concentration at which inhibition is half-maximal. Low values mean greater potency in that assay, high ones weaker potency in that assay.

Structures are written as SMILES.

mushroom tyrosinase, sequence (C7FF04 1-392): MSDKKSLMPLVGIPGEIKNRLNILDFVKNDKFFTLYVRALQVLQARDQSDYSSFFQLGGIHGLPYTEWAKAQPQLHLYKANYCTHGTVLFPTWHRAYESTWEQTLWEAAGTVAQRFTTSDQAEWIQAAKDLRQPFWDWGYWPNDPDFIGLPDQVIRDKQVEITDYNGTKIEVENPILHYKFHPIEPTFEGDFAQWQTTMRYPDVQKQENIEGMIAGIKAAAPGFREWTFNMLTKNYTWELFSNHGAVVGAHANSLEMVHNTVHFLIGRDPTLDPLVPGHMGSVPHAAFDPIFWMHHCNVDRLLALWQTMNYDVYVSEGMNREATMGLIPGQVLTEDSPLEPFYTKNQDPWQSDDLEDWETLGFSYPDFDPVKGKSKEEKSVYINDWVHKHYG
mushroom tyrosinase, sequence (G1K3P4 1-150 partner): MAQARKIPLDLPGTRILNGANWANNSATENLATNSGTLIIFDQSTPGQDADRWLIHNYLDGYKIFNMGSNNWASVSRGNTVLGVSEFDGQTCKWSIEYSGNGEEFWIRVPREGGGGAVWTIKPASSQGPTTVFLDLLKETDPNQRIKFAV

The first test has as its target mushroom tyrosinase (Agaricus bisporus, UniProt C7FF04). In words: Tyrosinase inhibition assay (dopachrome formation, absorbance at 490 nm). The class given is biochemical. The settings on record: at a concentration of 100 µM. Here is the method: Tyrosinase is a crucial enzyme in melanin synthesis, participating as an oxidase in the initial steps of melanin formation.
Evaluation of tyrosinase-inhibitory activity was conducted using mushroom tyrosinase (Sigma-Aldrich). For each test, 10 mM of each compound isolated from the pollen of Q. mongolica (1 µL) was evaluated. A 50 µL portion of 1 mM tyrosine (Sigma-Aldrich) dissolved in phosphate-buffered saline was introduced into each well, followed by a 5 min incubation period. Mushroom tyrosinase was prepared to a final concentration of 0.1 U/mL in phosphate-buffered saline, and 49 µL of the prepared enzyme solution was added to the wells, resulting in a compound concentration of 0.1 mM. The mixture underwent a 15 min incubation, after which the production of dopachrome was evaluated by recording the absorbance at 490 nm using a Dynatech MR 500 plate reader (Dynatech, Charlottesville, VA, USA). […] The percentage inhibition for each sample was determined at concentrations of […]. The IC50 value was calculated as the concentration of the compound required to achieve 50% inhibition of tyrosinase activity.
Turning to `O=c1c(O)c(-c2ccc(O)cc2)oc2cc(O)cc(O)c12` [Compound 12, kaempferol], the inhibition at 100 µM was more than 70%. The same measure, in the same setting: the value for `O=c1cc(-c2ccc(O)c(O)c2)oc2cc(O)cc(O)c12` [Compound 16, luteolin] was more than 50%.

Tested on in a further test: not listed separately
Put plainly: DPPH radical scavenging antioxidant assay. The settings on record: DPPH radical scavenging, 10 min incubation; PC = positive control ascorbic acid. As to the method:
The antioxidant properties of compounds 1–18 isolated from the pollen of Q. mongolica were assessed through DPPH assay.
The radical scavenging activity of DPPH (Sigma-Aldrich) was hired for the antioxidant activity. For each assay, 10 mM of each compound isolated from the pollen of Q. mongolica (1 µL) was evaluated, followed by 49 µL of MeOH in each well. Subsequently, 50 µL of 0.3 mM DPPH solution (Sigma-Aldrich) was added. The final concentration was tested to 0.1 mM. The mixture was incubated for 10 min, and antioxidant activity was evaluated by measuring UV at 550 nm using a Dynatech MR 500 plate reader. […]
In turn, `COc1cc(-c2oc3cc(O)cc(O)c3c(=O)c2OC2OC(COC3OCC(O)C(O)C3O)C(O)C(O)C2OC(C)=O)ccc1O` (stereo not shown) [Compound 1, mongolinodoside A] returned an IC50 of more than 100 µM.

`O=c1c(OC2OC(CO)C(O)C(O)C2OC2OC(CO)C(O)C(O)C2O)c(-c2ccc(O)c(O)c2)oc2cc(O)cc(O)c12` (stereo not shown) [Compound 2, quercetin 3-sophoroside] showed an IC50 of 34.3 µM.

For the molecule `COc1cc(-c2oc3cc(O)cc(O)c3c(=O)c2OC2OC(CO)C(O)C(O)C2OC2OC(C)C(O)C(O)C2O)ccc1O` (stereo not shown) [Compound 3, calendoflavoside], the 50% inhibitory concentration (IC50) is more than 100 µM. With `O=c1c(OC2OC(CO)C(O)C(O)C2OC2OCC(O)C(O)C2O)c(-c2ccc(O)cc2)oc2cc(O)cc(O)c12` (stereo not shown) [Compound 4, leucoside], the IC50 was more than 100 µM. Still for that read-out and setting: the value for `O=c1c(OC2OC(CO)C(O)C(O)C2OC2OCC(O)C(O)C2O)c(-c2ccc(O)c(O)c2)oc2cc(O)cc(O)c12` (stereo not shown) [Compound 5, quercetin 3-sambubioside] was 18.4 µM; that for `COc1cc(-c2oc3cc(O)cc(O)c3c(=O)c2OC2OC(COC3OCC(O)C(O)C3O)C(O)C(O)C2O)ccc1O` [Compound 6, Isorhamnetin 3-O-β-D-xylopyranosyl (1→6)-β-D-glucopyranoside] was more than 100 µM; that for `O=c1c(O[C@@H]2O[C@H](CO)[C@@H](O)[C@H](O)[C@H]2O)c(-c2ccc(O)cc2)oc2cc(O)cc(O)c12` [Compound 7, astragalin] was more than 100 µM.

As to `O=c1c(O[C@@H]2O[C@H](CO)[C@@H](O)[C@H](O)[C@H]2O)c(-c2ccc(O)c(O)c2)oc2cc(O)cc(O)c12` [Compound 8, isoquercetin], it took 28.5 µM to reach half-maximal inhibition (IC50). The same measure, in the same setting: under `COc1cc(-c2oc3cc(O)cc(O)c3c(=O)c2OC2OC(CO)C(O)C(O)C2O)ccc1O` (stereo not shown) [Compound 9, isorhamnetin 3-glucoside] stands more than 100 µM; under `COc1c(O)cc(O)c2c(=O)c(OC3OC(CO)C(O)C(O)C3O)c(-c3ccc(O)cc3)oc12` (stereo not shown) [Compound 10, 8-methoxykaempferol 3-glucoside], more than 100 µM; under `COc1cc(-c2oc3c(OC)c(O)cc(O)c3c(=O)c2OC2OC(CO)C(O)C(O)C2O)ccc1O` (stereo not shown) [Compound 11, limocitrin 3-glucoside], more than 100 µM. Same read-out and setting: under `O=c1c(O)c(-c2ccc(O)cc2)oc2cc(O)cc(O)c12` [Compound 12, kaempferol] stands 42.4 µM. On the same count and under the same terms, under `COc1cc(-c2oc3cc(O)cc(O)c3c(=O)c2O)ccc1O` [Compound 13, isorhamnetin] stands 25.5 µM; under `COc1cc(-c2oc3c(OC)c(O)cc(O)c3c(=O)c2O)ccc1O` [Compound 14, limocitrin], 52.3 µM; under `O=c1cc(-c2ccc(O)cc2)oc2cc(O)cc(O)c12` [Compound 15, apigenin], more than 100 µM. On to `O=c1cc(-c2ccc(O)c(O)c2)oc2cc(O)cc(O)c12` [Compound 16, luteolin], for which the half-inhibitory concentration (IC50) worked out at 9.7 µM. Same read-out and setting: under `O=C1C[C@@H](c2ccc(O)cc2)Oc2cc(O)cc(O)c21` [Compound 17, naringenin] stands more than 100 µM; under `COc1ccc(-c2coc3cc4c(c(O)c3c2=O)C=CC(C)(C)O4)cc1` [Compound 18, 4′-methylalpinumisoflavone], more than 100 µM; under `O=C1O[C@H]([C@@H](O)CO)C(O)=C1O` [ascorbic acid, reference compound], 28.5 µM.

Staying with this test, now noted: at a concentration of 100 µM.
For the molecule `O=c1c(OC2OC(CO)C(O)C(O)C2OC2OC(CO)C(O)C(O)C2O)c(-c2ccc(O)c(O)c2)oc2cc(O)cc(O)c12` (stereo not shown) [Compound 2, quercetin 3-sophoroside], the DPPH scavenging activity result is listed as “over 90%”. On to `O=c1c(OC2OC(CO)C(O)C(O)C2OC2OCC(O)C(O)C2O)c(-c2ccc(O)c(O)c2)oc2cc(O)cc(O)c12` (stereo not shown) [Compound 5, quercetin 3-sambubioside], for which the DPPH scavenging activity entry is reported as “over 90%”. Still for that read-out and setting: the value for `O=c1c(O[C@@H]2O[C@H](CO)[C@@H](O)[C@H](O)[C@H]2O)c(-c2ccc(O)c(O)c2)oc2cc(O)cc(O)c12` [Compound 8, isoquercetin] was “over 90%”; that for `O=c1c(O)c(-c2ccc(O)cc2)oc2cc(O)cc(O)c12` [Compound 12, kaempferol] was “over 90%”; that for `COc1cc(-c2oc3cc(O)cc(O)c3c(=O)c2O)ccc1O` [Compound 13, isorhamnetin] was “over 90%”. Regarding `COc1cc(-c2oc3c(OC)c(O)cc(O)c3c(=O)c2O)ccc1O` [Compound 14, limocitrin], the DPPH scavenging activity result is given as “over 90%”.

In the case of `O=c1cc(-c2ccc(O)c(O)c2)oc2cc(O)cc(O)c12` [Compound 16, luteolin], the DPPH scavenging activity result is listed as “over 90%”.
